Patent US20080318269A1, “Devices and Methods for the Analysis of Biofilm” (priority 2005, published 2008)
Entries after “also recorded” stand apart in the source; their conditions may differ. Read-outs that look alike come from different tables or passages of the source.

Key:
[1] = test system: Candida biofilms; test: Minimum biofilm eradication concentration assay, Candida spp.; format: cell-based; details: sessile (biofilm) Candida
Protocol: (§1) Biofilm formation and measurement of antimicrobial sensitivity of Candida and Aspergillus biofilms were performed using an assembly of the present invention. The device features a microtliter plate lid with 96 pegs or projections distributed on the lid. Each peg provided the surface for microorganism to adhere, colonize and form a uniform biofilm. The pegs fit precisely into the wells of a standard 96-well microtiter plate. The lid was used in conjunction with a base having special troughs for growing, washing, and incubating fungi. Colonies of Candida sp. were picked from 24 hour cultures on Sabouraud Dextrose agar (SDA) (BBL Microbiological Systems, Cockeysville, Md.) and placed into Mueller-Hinton Broth (MHB) (Difco Laboratories, Detroit Mich.) such that the suspension matched a McFarland standard of 1.0. This suspension was then diluted 1:30 in MHB, and 25 ml were pipetted into the trough chamber of the base. The closed assembly (lid with pegs positioned on the base) was placed on a Hoeffer Red Rocker (VWR, Scientific) set to rock the plates 3.5 cycles per minute in a 37° C. incubator. C. albicans and C. tropicalis were incubated aerobically, while C. glabrata was incubated in 10% CO2. It was determined in preliminary experiments that C. glabrata required 10% CO2 atmosphere for biofilms to form.
(§2) Biofilm susceptibility testing uses the pegged lid of the assembly, now containing biofilms formed after rocking in the tray for 24 hour. Each peg on the lid was gently washed once in […] of phosphate buffered saline solution (PBSS) in a 96-well microtiter plate (Falcon). The pegged lid was then transferred to another 96 well microtiter plate containing 2 fold dilutions antifungal agent in 200 μl of RPMI 1640 (Sigma, St. Louis, Mo.) or RPMI 1640 containing 1% DMSO (see test drug section). After the pegs were exposed to the drugs for 24 hours, the pegged lid was removed and gently rinsed twice in saline. The pegged lid was then placed on a 96 well plate containing RPMI 1640 recovery medium. The pegs were sonicated for 5 minutes (Candida spp.) or 7 minutes (Aspergillus) in an ultrasonicator to dislodge adherent cells into the recovery medium. Aliquots of 20 μl of the recovery medium were spot plated on SDA (Candida spp) or Rose Bengal Agar (A. fumigatus) to obtain the MBEC. The assembly was also used to determine the minimum inhibitory concentration (MIC) and minimum fungicidal concentration (MFC). The turbidity of the wells that contained the antibiotic and planktonic cells which were shed from the biofilm was measured at […] to obtain the MIC. A 20 μl sample from each well was also spot plated onto Sabouraud Dextrose agar (Candida spp) or Rose Bengal Agar (A. fumigatus) to obtain the MFC.
Drugs tested. […]

[2] = test system: biofilm cells of C. albicans; test: Minimum biofilm eradication concentration assay, C. albicans; format: cell-based, Candida albicans; details: 24 hours exposure
Protocol: as §1, with “The closed assembly (lid with pegs positioned on the base) was placed on a Hoeffer Red Rocker (VWR, Scientific) set to rock the plates 3.5 cycles per minute in a 37° C. incubator. C. albicans and C. tropicalis were incubated aerobically, while C. glabrata was incubated in 10% CO2.” left out
Biofilm susceptibility testing uses the pegged lid of the assembly, now containing biofilms formed after rocking in the tray for 24 hour. […] The turbidity of the wells that contained the antibiotic and planktonic cells which were shed from the biofilm was measured at […] to obtain the MIC. […]

[3] = test system: invasive pulmonary, sinus and cerebral aspergillosis; details: cited from earlier work
[4] = test system: planktonic cultures of C. albicans; test: Planktonic sensitivity (MIC, MFC) of C. albicans to antifungal agents; format: cell-based, Candida albicans
Protocol: as §2
Minimum Inhibitory Concentrations (MIC) and Minimum Fungicidal Concentrations (MFC) were determined according to the guidelines of the National Committee for Clinical laboratory Standards (NCCLS). Briefly, Candida sp. were maintained on polystyrene spheres at −70° C. until plating. […]
(§3) The test wells were then incubated at 37° C. for 24 hours with the antifungal drugs. MICs for Candida were obtained after incubation by reading the turbidity at 650 nm on a microtiter plate reader (Softmax, VWR). […] MFCs were determined for Aspergillus by plating 100 μl from each well onto Rose Bengal Agar, followed by spreading with a sterile glass spreader. […]

[5] = test system: C. tropicalis planktonic cells; test: Planktonic sensitivity (MIC) of C. tropicalis to antifungal agents; format: cell-based, Candida tropicalis; details: C. tropicalis strain tested
Protocol: Biofilm susceptibility testing uses the pegged lid of the assembly, now containing biofilms formed after rocking in the tray for 24 hour. Each peg on the lid was gently washed once in […] of phosphate buffered saline solution (PBSS) in a 96-well microtiter plate (Falcon). The pegged lid was then transferred to another 96 well microtiter plate containing 2 fold dilutions antifungal agent in 200 μl of RPMI 1640 (Sigma, St. Louis, Mo.) or RPMI 1640 containing 1% DMSO (see test drug section). After the pegs were exposed to the drugs for 24 hours, the pegged lid was removed and gently rinsed twice in saline. The pegged lid was then placed on a 96 well plate containing RPMI 1640 recovery medium. […] The turbidity of the wells that contained the antibiotic and planktonic cells which were shed from the biofilm was measured at […] to obtain the MIC. […]
Minimum Inhibitory Concentrations (MIC) and Minimum Fungicidal Concentrations (MFC) were determined according to the guidelines of the National Committee for Clinical laboratory Standards (NCCLS). […]
as §3

[6] = test system: P. aeruginosa biofilm; test: P. aeruginosa biofilm assay kit, biofilm MBEC read on recovery plate (Example 8); format: cell-based, Pseudomonas aeruginosa; details: challenge 35° C. for 24 hours; recovery 20 to 24 hours; breakpoint concentrations
[7] = test system: Pseudomonas aeruginosa (Ps) biofilm; test: MBEC assay, Ps biofilms exposed to antibiotics and combinations (Example 5); format: cell-based; details: number of the 12 isolates from Cystic Fibrosis patients that are resistant; 24 hours exposure
[8] = test system: Pseudomonas aeruginosa (Ps) planktonic bacteria; test: MBEC assay, Ps planktonic bacteria exposed to antibiotics and combinations (Example 5); format: cell-based; details: number of the 12 isolates from Cystic Fibrosis patients that are resistant; 24 hours exposure
[9] = test system: P. aeruginosa planktonic bacteria shed from the biofilm; test: P. aeruginosa biofilm assay kit, planktonic MIC read on challenge plate (Example 8); format: cell-based, Pseudomonas aeruginosa; details: challenge 35° C. for 24 hours; breakpoint concentrations
[10] = test system: Staphylococcus aureus planktonic forms; test: Staphylococcus test plate, planktonic sensitivity (Example 9); format: cell-based; details: figure in the label = antibiotic concentration, breakpoint concentrations
[11] = test system: Staphylococcus aureus (Staph) biofilm; test: MBEC assay, Staph biofilms exposed to antibiotics and combinations (Example 5); format: cell-based; details: number of the 12 isolates from device associated infections that are resistant; 24 hours exposure
[12] = test system: Staphylococcus aureus biofilm; test: Staphylococcus test plate, biofilm sensitivity (Example 9); format: cell-based; details: figure in the label = antibiotic concentration, breakpoint concentrations
[13] = test system: Staphylococcus aureus (Staph) planktonic bacteria; test: MBEC assay, Staph planktonic bacteria exposed to antibiotics and combinations (Example 5); format: cell-based; details: number of the 12 isolates from device associated infections that are resistant; 24 hours exposure
[14] = planktonic cultures of C. albicans, 24 hours

COC1=CC(=O)C[C@@H](C)[C@]12Oc1c(Cl)c(OC)cc(OC)c1C2=O [Griseofulvin]
effectiveness against Candida growing as a biofilm [1]: ineffective

C[C@@H]1[C@H](O)[C@@H](C)/C=C/C=C/C=C/C=C/C=C/C=C/C=C/[C@H](O[C@@H]2O[C@H](C)[C@@H](O)[C@H](N)[C@@H]2O)C[C@@H]2O[C@](O)(C[C@@H](O)C[C@@H](O)[C@H](O)CC[C@@H](O)C[C@@H](O)CC(=O)O[C@H]1C)C[C@H](O)[C@H]2C(=O)O [amphotericin B, Amphotericin B]
effectiveness against Candida growing as a biofilm [1]: most effective
average concentration required to kill biofilm cells (MBEC) [2]: 12 µg/mL
crude mortality rate of treated patients ([3]; invasive cerebral aspergillosis): 99%
crude mortality rate of treated patients ([3]; invasive pulmonary aspergillosis): 86%
crude mortality rate of treated patients ([3]; invasive sinus aspergillosis): 66%
average MFC [4, 14]: 0.02 µg/mL
average MIC [4, 14]: 0.09 µg/mL

OC(Cn1cncn1)(Cn1cncn1)c1ccc(F)cc1F [fluconazole, Fluconazole]
classification by MIC criterion (MIC less than or equal to 8 μg/ml = susceptible) [5]: susceptible
classification by MIC criterion (MIC less than or equal to 8 μg/ml = susceptible) ([4]; C. albicans strain tested, planktonic): susceptible

C[C@@H]1[C@H](O)[C@@H](C)/C=C/C=C/CC/C=C/C=C/C=C/C=C/C(O[C@H]2O[C@H](C)[C@@H](O)[C@H](N)[C@@H]2O)CC2O[C@](O)(CC(O)C(O)CCC(O)CC(O)CC(O)CC(=O)O[C@H]1C)CC(O)C2C(=O)O (some centres unmarked) [nystatin, Nystatin]
effectiveness against Candida growing as a biofilm [1]: effective; also recorded: most effective

Colistin [CLO]
Number of P. aeruginosa isolates resistant to individual antibiotics and antibiotic combinations, Biofilm [6]: 12
Ps resistance to individual antibiotics and antibiotic combinations, Biofilm [7]: 12
Ps resistance to individual antibiotics and antibiotic combinations, Planktonic [8]: 2
Number of P. aeruginosa isolates resistant to individual antibiotics and antibiotic combinations, Planktonic [9]: 2

Polymyxin B
effectiveness against Candida growing as a biofilm [1]: ineffective

gentamicin [GM]
Number of Staphylococcus aureus isolates resistant to individual antibiotics and antibiotic combinations, Planktonic ([10]; listed as GM2): 4
Number of Staphylococcus aureus isolates resistant to individual antibiotics and antibiotic combinations, Planktonic ([10]; listed as GM4): 3
Number of P. aeruginosa isolates resistant to individual antibiotics and antibiotic combinations, Biofilm [6]: 12
Ps resistance to individual antibiotics and antibiotic combinations, Biofilm [7]: 12
Staph resistance to individual antibiotics and antibiotic combinations, Biofilm [11]: 10
Number of Staphylococcus aureus isolates resistant to individual antibiotics and antibiotic combinations, Biofilm ([12]; listed as GM2): 11
Number of Staphylococcus aureus isolates resistant to individual antibiotics and antibiotic combinations, Biofilm ([12]; listed as GM4): 10
Ps resistance to individual antibiotics and antibiotic combinations, Planktonic [8]: 8
Staph resistance to individual antibiotics and antibiotic combinations, Planktonic [13]: 6
Number of P. aeruginosa isolates resistant to individual antibiotics and antibiotic combinations, Planktonic [9]: 8
